Reference: ChEMBL document CHEMBL4602617, “Discovery and optimization of heteroaryl piperazines as potent and selective PI3Kδ inhibitors” (Bioorg Med Chem Lett, 2020)

Columns and labels:
[1] = molecular target: Alpha-2C adrenergic receptor (Homo sapiens) (UniProt P18825); test: Displacement of [3H]rauwolscine from full-length recombinant human alpha2C receptor expressed in CHOK1 cells at 10 uM measured after 60 mins by scintillation counting method relative to control; assay type: cell-based; settings: CHO-K1
Chain of Alpha-2C adrenergic receptor (Homo sapiens) (P18825 whole entry, the tested form may be a part): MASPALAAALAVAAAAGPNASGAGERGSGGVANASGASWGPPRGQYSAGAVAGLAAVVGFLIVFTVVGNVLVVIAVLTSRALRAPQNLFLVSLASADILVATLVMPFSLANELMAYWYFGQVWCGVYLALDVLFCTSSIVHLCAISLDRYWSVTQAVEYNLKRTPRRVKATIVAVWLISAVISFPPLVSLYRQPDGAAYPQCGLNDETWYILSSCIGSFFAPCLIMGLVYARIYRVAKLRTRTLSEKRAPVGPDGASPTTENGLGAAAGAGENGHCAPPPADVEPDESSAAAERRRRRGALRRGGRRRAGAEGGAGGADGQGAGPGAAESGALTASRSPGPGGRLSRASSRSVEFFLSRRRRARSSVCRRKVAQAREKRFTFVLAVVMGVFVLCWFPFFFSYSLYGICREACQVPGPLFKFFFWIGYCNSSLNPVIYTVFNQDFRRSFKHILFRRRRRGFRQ

[2] = molecular target: Serine/threonine-protein kinase PAK 4 (Homo sapiens, UniProt O96013); test: Inhibition of recombinant human GST-tagged PAK4 catalytic domain (295 to 591 residues) expressed in baculovirus expression system using serine/threonine-20 peptide as substrate incubated for 60 mins in presence of ATP by Z'-LYTE assay
[3] = molecular target: cAMP-dependent protein kinase catalytic subunit alpha (Homo sapiens, UniProt P17612); test: Inhibition of recombinant human His-tagged PRKACA catalytic domain expressed in Escherichia coli using fluorophore-labeled serine/threonine-1 peptide as substrate incubated for 60 mins in presence of ATP by Z'-LYTE assay
[4] = molecular target: Tyrosine-protein kinase Yes (Homo sapiens, UniProt P07947); test: Inhibition of full length recombinant GST-tagged human YES1 expressed in baculovirus expression system using tyr 02 peptide as substrate after 1 hr in presence of ATP by Z'-LYTE assay
Chain of Tyrosine-protein kinase Yes (P07947 whole entry): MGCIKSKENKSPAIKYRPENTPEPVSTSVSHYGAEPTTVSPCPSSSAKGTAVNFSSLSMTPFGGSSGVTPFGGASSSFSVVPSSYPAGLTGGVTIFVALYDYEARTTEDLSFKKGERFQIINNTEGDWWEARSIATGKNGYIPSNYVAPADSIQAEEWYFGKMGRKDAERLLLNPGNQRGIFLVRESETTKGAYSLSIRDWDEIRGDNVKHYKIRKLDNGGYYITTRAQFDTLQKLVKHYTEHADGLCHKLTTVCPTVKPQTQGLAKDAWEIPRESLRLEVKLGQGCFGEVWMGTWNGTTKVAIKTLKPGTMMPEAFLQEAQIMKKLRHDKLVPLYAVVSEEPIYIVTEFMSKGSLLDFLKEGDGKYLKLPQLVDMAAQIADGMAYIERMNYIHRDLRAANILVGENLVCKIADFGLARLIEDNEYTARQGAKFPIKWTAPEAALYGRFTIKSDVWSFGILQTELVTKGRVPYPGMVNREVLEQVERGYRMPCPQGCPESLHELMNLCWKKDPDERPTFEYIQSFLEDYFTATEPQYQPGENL

[5] = molecular target: Melanocortin receptor 4 (Homo sapiens) (UniProt P32245); test: Displacement of [125I]NDP-alpha-MSH from full length human recombinant MC4 receptor expressed in HEK293 cells at 10 uM measured after 120 mins by radiometric scintillation analysis relative to control; assay type: cell-based
[6] = molecular target: Tyrosine-protein kinase JAK1 (Homo sapiens, UniProt P23458); test: Inhibition of human recombinant GST tagged JAK1 expressed in baculovirus expression system using Tyr6 peptide as substrate measured after 1 hr in presence of ATP by Z'-LYTE assay
[7] = molecular target: Phosphatidylinositol 3-kinase catalytic subunit type 3 (Homo sapiens, UniProt Q8NEB9); test: Inhibition of recombinant full length human GST-tagged PIK3C3 expressed in baculovirus expression system using PI lipid as substrate incubated for 60 mins in presence of ATP by Adapta assay
[8] = molecular target: Ribosomal protein S6 kinase alpha-3 (Homo sapiens, UniProt P51812); test: Inhibition of recombinant full length human His-tagged RSK2 expressed in baculovirus expression system using serine/threonine-6 peptide as substrate incubated for 60 mins in presence of ATP by Z'-LYTE assay
[9] = molecular target: Tyrosine-protein kinase receptor UFO (Homo sapiens, UniProt P30530); test: Inhibition of recombinant full length human GST-tagged AXL expressed in insect expression system using tyrosine-6 peptide as substrate incubated for 60 mins in presence of ATP by Z'-LYTE assay
[10] = molecular target: Serine/threonine-protein kinase DCLK2 (Homo sapiens, UniProt Q8N568); test: Inhibition of recombinant full length human GST-tagged DCAMKL2 expressed in baculovirus expression system using serine/threonine-17 peptide as substrate incubated for 60 mins in presence of ATP by Z'-LYTE assay
Chain of Serine/threonine-protein kinase DCLK2 (Q8N568 whole entry): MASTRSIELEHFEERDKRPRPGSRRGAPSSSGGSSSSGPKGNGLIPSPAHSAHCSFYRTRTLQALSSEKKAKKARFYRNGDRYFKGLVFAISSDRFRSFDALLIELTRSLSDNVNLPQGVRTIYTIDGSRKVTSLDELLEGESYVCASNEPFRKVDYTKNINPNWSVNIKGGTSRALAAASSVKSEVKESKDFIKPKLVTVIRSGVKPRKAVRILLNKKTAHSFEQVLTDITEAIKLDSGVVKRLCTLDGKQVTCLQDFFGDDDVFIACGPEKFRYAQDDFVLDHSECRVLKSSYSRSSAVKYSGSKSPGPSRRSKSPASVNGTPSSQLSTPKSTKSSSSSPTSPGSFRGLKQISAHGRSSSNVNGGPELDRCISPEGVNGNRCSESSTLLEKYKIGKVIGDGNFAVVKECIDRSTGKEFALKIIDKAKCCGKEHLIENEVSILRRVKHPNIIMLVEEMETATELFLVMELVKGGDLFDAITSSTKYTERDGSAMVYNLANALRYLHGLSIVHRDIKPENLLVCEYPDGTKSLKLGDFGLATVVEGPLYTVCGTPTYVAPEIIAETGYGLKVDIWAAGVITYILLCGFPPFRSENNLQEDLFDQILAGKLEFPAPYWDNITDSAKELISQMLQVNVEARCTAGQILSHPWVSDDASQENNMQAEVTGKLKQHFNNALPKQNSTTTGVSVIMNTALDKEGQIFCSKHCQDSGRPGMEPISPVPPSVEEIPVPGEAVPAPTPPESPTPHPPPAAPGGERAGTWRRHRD

[11] = molecular target: Melanocyte-stimulating hormone receptor (Homo sapiens) (UniProt Q01726); test: Displacement of [125I]NDP-alpha-MSH from full length human recombinant MC1 receptor expressed in CHO-K1 cells at 10 uM measured after 120 mins by radiometric scintillation analysis relative to control; assay type: cell-based
[12] = molecular target: Activin receptor type-1B (Homo sapiens, UniProt P36896); test: Inhibition of recombinant GST-tagged human ALK4 (150 to 505 residues) expressed in baculovirus expression system using Ser/Thr-16 peptide as substrate incubated for 60 mins in presence of ATP by Z'-LYTE assay
[13] = molecular target: Serine/threonine-protein kinase Nek2 (Homo sapiens, UniProt P51955); test: Inhibition of recombinant full length human His-tagged NEK2 expressed in baculovirus expression system using serine/threonine-7 peptide as substrate incubated for 60 mins in presence of ATP by Z'-LYTE assay
Chain of Serine/threonine-protein kinase Nek2 (P51955 whole entry, the tested form may be a part): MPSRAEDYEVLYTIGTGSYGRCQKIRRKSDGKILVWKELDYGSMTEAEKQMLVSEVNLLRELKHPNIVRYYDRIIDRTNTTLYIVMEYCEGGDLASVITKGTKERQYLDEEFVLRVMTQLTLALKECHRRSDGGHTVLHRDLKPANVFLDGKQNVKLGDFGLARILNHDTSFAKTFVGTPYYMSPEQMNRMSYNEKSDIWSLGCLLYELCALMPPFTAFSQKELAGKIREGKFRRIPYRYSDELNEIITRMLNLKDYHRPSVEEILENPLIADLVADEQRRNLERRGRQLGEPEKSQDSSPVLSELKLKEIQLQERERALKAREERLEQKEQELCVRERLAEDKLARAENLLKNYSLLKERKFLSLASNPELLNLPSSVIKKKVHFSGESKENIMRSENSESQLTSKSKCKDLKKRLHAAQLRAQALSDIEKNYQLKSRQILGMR

[14] = molecular target: Mast/stem cell growth factor receptor Kit (Homo sapiens, UniProt P10721, T670I); test: Inhibition of recombinant human His-tagged KIT (544 to 976 residues) harboring T670I mutant expressed in baculovirus expression system using tyrosine-6 peptide as substrate incubated for 60 mins in presence of ATP by Z'-LYTE assay
[15] = molecular target: Serine/threonine-protein kinase N1 (Homo sapiens, UniProt Q16512); test: Inhibition of recombinant full length GST-tagged human PKN1 expressed in baculovirus expression system using Ser/Thr 07 as substrate in presence of ATP after 1 hr by Z'-LYTE assay
Chain of Serine/threonine-protein kinase N1 (Q16512 whole entry): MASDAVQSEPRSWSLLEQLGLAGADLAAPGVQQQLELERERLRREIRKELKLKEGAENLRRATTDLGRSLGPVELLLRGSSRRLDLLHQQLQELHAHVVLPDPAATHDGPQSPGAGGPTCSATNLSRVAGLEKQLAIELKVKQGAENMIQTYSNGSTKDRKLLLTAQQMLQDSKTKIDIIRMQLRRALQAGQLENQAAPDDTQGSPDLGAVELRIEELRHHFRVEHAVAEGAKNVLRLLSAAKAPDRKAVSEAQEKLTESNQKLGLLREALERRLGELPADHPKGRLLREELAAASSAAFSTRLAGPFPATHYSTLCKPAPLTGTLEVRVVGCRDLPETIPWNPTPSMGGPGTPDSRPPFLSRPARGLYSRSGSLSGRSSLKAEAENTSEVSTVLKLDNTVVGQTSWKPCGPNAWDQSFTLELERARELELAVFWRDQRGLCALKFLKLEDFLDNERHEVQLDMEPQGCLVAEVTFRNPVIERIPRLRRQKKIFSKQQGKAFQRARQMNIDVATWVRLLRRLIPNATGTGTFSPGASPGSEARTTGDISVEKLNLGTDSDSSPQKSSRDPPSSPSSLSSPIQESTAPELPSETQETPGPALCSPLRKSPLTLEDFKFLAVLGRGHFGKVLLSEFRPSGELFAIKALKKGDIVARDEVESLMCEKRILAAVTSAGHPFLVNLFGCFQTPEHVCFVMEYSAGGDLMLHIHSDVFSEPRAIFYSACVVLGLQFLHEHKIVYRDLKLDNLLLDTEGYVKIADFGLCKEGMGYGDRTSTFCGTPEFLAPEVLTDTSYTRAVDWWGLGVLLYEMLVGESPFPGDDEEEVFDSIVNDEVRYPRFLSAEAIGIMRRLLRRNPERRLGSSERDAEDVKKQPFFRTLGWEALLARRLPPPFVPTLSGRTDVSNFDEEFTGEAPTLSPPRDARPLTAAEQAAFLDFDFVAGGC

[16] = molecular target: Mitogen-activated protein kinase 11 (Homo sapiens, UniProt Q15759); test: Inhibition of recombinant full length human His-tagged p38beta expressed in baculovirus expression system using serine/threonine-15 peptide as substrate incubated for 60 mins in presence of ATP by Z'-LYTE assay
Chain of Mitogen-activated protein kinase 11 (Q15759 whole entry): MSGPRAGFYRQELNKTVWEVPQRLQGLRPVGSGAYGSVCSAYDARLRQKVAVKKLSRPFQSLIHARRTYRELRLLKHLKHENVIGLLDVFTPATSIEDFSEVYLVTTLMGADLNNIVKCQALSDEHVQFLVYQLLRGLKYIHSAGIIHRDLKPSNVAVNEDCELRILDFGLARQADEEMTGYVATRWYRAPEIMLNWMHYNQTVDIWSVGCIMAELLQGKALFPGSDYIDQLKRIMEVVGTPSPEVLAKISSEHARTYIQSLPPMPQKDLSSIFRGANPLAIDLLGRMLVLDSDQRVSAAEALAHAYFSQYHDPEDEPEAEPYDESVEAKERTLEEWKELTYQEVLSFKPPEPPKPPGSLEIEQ

[17] = molecular target: MAO-A (Homo sapiens, UniProt P21397); test: Inhibition of recombinant full-length human MAO-A expressed in insect cells at 10 uM using kynuramine as substrate after 60 mins by spectrophotometric analysis relative to control; settings: probe kynuramine
[18] = Clearance in rat plasma at 0.5 mg/kg, iv or 1 mg/kg, po; assay type: ADME, organism-based
[19] = molecular target: C-X-C chemokine receptor type 2 (Homo sapiens) (UniProt P25025); test: Displacement of [125I]IL-8 from recombinant full length human CXCR2 receptor expressed in CHOK1 cells at 10 uM measured after 60 mins by radiometric scintillation analysis relative to control; assay type: cell-based; settings: CHO-K1
Chain of C-X-C chemokine receptor type 2 (Homo sapiens) (P25025 whole entry): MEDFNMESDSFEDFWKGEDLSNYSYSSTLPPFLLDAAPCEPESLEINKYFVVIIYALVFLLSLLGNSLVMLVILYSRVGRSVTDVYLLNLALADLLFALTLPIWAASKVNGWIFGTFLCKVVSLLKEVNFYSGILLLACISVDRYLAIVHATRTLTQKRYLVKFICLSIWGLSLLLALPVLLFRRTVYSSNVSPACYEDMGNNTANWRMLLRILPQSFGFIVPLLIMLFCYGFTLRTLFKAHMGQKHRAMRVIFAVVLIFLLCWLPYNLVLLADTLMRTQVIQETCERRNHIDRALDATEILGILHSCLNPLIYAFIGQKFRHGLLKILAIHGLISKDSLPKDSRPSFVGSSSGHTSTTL

[20] = molecular target: Cytochrome P450 2D6 (Homo sapiens, UniProt P10635); test: Inhibition of CYP2D6 (unknown origin)
Chain of Cytochrome P450 2D6 (P10635 whole entry): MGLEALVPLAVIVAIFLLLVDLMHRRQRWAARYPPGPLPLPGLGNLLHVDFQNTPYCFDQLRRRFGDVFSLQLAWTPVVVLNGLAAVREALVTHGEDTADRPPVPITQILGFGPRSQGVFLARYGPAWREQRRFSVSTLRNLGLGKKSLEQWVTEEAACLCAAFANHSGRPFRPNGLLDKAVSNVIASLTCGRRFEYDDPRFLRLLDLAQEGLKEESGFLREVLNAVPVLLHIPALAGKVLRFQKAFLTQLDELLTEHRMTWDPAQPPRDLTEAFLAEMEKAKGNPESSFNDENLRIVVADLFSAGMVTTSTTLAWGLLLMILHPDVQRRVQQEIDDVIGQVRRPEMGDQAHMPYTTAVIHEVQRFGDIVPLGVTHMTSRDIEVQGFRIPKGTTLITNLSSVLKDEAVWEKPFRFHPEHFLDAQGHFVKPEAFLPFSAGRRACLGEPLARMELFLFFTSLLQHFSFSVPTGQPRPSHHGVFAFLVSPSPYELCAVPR

[21] = molecular target: Glutamate NMDA receptor (Rattus norvegicus) (UniProt P35439+Q00959+Q00960+Q00961+Q62645+Q8VHN2+Q9R1M7); test: Displacement of [3H]TCP from glutamate NMDA receptor phencyclidine binding site in Wistar rat cerebral cortex at 10 uM incubated for 45 mins by radiometric scintillation analysis relative to control
[22] = molecular target: Rhodopsin kinase GRK7 (Homo sapiens, UniProt Q8WTQ7); test: Inhibition of recombinant full length human GST-tagged GRK7 expressed in baculovirus expression system using serine/threonine-16 peptide as substrate incubated for 60 mins in presence of ATP by Z'-LYTE assay
Chain of Rhodopsin kinase GRK7 (Q8WTQ7 whole entry): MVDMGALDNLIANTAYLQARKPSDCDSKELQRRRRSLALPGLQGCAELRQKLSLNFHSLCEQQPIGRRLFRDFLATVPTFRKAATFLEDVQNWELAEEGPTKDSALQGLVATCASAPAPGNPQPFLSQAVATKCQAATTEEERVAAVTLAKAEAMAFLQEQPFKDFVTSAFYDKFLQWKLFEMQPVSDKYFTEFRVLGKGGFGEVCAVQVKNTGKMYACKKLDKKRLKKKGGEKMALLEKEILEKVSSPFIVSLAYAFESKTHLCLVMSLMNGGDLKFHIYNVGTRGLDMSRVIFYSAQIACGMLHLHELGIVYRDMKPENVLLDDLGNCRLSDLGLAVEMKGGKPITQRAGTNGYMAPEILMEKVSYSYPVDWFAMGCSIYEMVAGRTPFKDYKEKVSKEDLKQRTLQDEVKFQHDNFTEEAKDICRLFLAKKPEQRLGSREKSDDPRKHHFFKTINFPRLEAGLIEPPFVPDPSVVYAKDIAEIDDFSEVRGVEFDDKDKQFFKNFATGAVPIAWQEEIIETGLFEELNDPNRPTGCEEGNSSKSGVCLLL

[23] = molecular target: AMP-activated protein kinase (AMPK) alpha-1/beta-1/gamma-1 (Homo sapiens, UniProt P54619+Q13131+Q9Y478); test: Inhibition of recombinant full length GST/His-tagged human AMPK alpha1/beta1/gamma1 expressed in insect cells using Ser/Thr-23 peptide as substrate incubated for 60 mins in presence of ATP by Z'-LYTE assay
[24] = organism: Rattus norvegicus; test: Displacement of [3H]hemicholinium-3 from choline transporter in Wistar rat striatal membranes at 10 uM after 20 mins by radiometric scintillation analysis relative to control; assay type: cell membranes; settings: Striatum, Membrane
[25] = molecular target: Aurora kinase A (Homo sapiens, UniProt O14965); test: Inhibition of recombinant human full length AURKA expressed in baculovirus expression system using Ser/Thr-01 peptide as substrate after 1 hr in presence of ATP by Z'LYTE assay
[26] = system: Atrial natriuretic peptide receptor 1 (Cavia porcellus); test: Inhibition of guniea pig ANF at 10 uM relative to control

Q: With `C[C@@H]1C[C@H]1C(=O)N1CCN(c2cnc(C#N)c(-c3cnn(C)c3)n2)C[C@H]1C` as the compound, how does the inhibition [1] read?
A: 5%

Q: What about the IC50 [2] of the same compound?
A: > 100 µM

Q: What about the IC50 [3] of the same compound?
A: > 100 µM

Q: What about the IC50 [4] of the same compound?
A: 37 µM

Q: What about the inhibition [5] of the same compound?
A: 5%

Q: What about the IC50 [6] of the same compound?
A: > 100 µM

Q: What about the IC50 [7] of the same compound?
A: > 100 µM

Q: And the IC50 [8]?
A: 29.1 µM

Q: And the IC50 [9]?
A: > 100 µM

Q: And the IC50 [10]?
A: > 100 µM

Q: And the inhibition [11]?
A: 3%

Q: And the IC50 [12]?
A: > 100 µM

Q: What about the IC50 [13] of the same compound?
A: > 100 µM

Q: What about the IC50 [14] of the same compound?
A: > 100 µM

Q: What about the IC50 [15] of the same compound?
A: > 100 µM

Q: What about the IC50 [16] of the same compound?
A: > 100 µM

Q: And the inhibition at 1 h, 10 µM [17]?
A: 11%

Q: What about the clearance [18] of the same compound?
A: 1.71 L/h/kg

Q: And the inhibition [19]?
A: 5%

Q: And the IC50 [20]?
A: > 50 µM

Q: What about the inhibition [21] of the same compound?
A: -4%

Q: What about the IC50 [22] of the same compound?
A: > 100 µM

Q: What about the IC50 [23] of the same compound?
A: > 100 µM

Q: What about the inhibition [24] of the same compound?
A: -8%

Q: And the IC50 [25]?
A: 16 µM

Q: What about the inhibition [26] of the same compound?
A: 8%
